Measured values published in patent US10227374B2, “Silyl etherified derivatives of 5-azacytidines in carbohydrate moiety” (OHARA PHARMACEUTICAL CO., LTD., priority 2016, dated 2019).
Where two headings read alike, the source gives them in different places.

What was measured:
RPMI-8226 myeloma cells = assay: Anti-myeloma activity, inhibition of cell proliferation; assay type: cell-based; conditions: Homo sapiens, 72 hours incubation, cell count
Protocol: After incubation in RPMI-1640 (containing 10% FBS and 1% Penn-strep) for 72 hours, cell count was determined and IC50 values were calculated as inhibitory effect against cell proliferation (referring to Journal of Clinical Pathology, 2006, 59, 947-951.).

[1] = molecular target: cytidine deaminase: CDA (1-146aa), Human, His-tagged, Recombinant (Homo sapiens, UniProt P32320); assay: Stability against cytidine deaminase (HPLC)
Sequence of cytidine deaminase: CDA (1-146aa), Human, His-tagged, Recombinant (P32320 whole entry): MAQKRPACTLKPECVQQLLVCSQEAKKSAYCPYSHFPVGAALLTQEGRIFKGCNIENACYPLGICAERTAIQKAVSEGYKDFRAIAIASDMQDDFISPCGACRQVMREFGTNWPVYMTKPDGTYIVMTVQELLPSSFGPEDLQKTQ
Protocol: Stability of Silyl Etherified Derivatives of 5-azacytidines in Carbohydrate Moiety Against Cytidine Deaminase
About 1 mg each of the silyl etherified derivatives of 5-azacytidines in carbohydrate moiety (referring to formula (1a)) was dissolved in 1 mL of acetonitrile. 10 μL of the solution was diluted with 1 mL of PBS. 10 μL of PBS solution of cytidine deaminase was added to the solution and stirred at 37° C. for about 1 hour. 1 mL of acetonitrile was added to the reaction solution and separated by centrifugation. The supernatant was analyzed with HPLC.
Cytidine deaminase: CDA (1-146aa), Human, His-tagged, Recombinant cytidine deaminase (ATGen)
Column: CAPCELL PAK ADME (4.6 mm×150 mm, particle size: 3 μm)
Elution: eluate A=Purified water containing 10 mM ammonium formate • eluate B=Acetonitrile • Gradient mode: A:B=99:1→5:95/30 minutes

[2] = Non-enzymatic hydrolysis in PBS solution at 37° C. (HPLC); assay type: physicochemical; conditions: 10 mM PBS; for 5-Azacytidine or 2′-deoxy-5-azacytidine (%) After 4 hours / 5-Azacytidine or 2′-deoxy-5-azacytidine (%) After 8 hours / 5-Azacytidine or 2′-deoxy-5-azacytidine (%) After 24 hours: released parent by HPLC; for production of the desilylated parent (5-azacytidine or 2′-deoxy-5-azacytidine): traced by HPLC
Protocol: Non-Enzymatic Hydrolysis of Silyl Etherified Derivatives of 5-Azacytidines in Carbohydrate Moiety
5 μL of the solution was added to 100 μL of 10 mM PBS solution and stirred at 37° C. The reactions were traced by HPLC analysis.
HPLC conditions were same as those in test example 1.

[3] = PBS, cytidine deaminase, 37° C., about 1 hour, peak of the starting material

SMILES	IC50 (RPMI-8226 myeloma cells)	stability against cytidine deaminase (in words) ([1]; PBS, cytidine deaminase, 37° C.)	Change in HPLC pattern [1, 3]	Change in HPLC pattern [1]	5-Azacytidine or 2′-deoxy-5-azacytidine (%) After 4 hours [2]	5-Azacytidine or 2′-deoxy-5-azacytidine (%) After 8 hours [2]	5-Azacytidine or 2′-deoxy-5-azacytidine (%) After 24 hours [2]	production of the desilylated parent (5-azacytidine or 2′-deoxy-5-azacytidine) [2]
Nc1ncn([C@H]2C[C@H](O)[C@@H](CO)O2)c(=O)n1 [2′-Deoxy-5-azacytidine, 2′-deoxy-5-azacytidine, reference compound]	0.03 µM	disappeared completely	The peak of the starting material disappeared	–	–	–	–	–
CC(C)(C)[Si](C)(C)OC[C@H]1O[C@@H](n2cnc(N)nc2=O)[C@H](O)[C@@H]1O [compound E, 5′-O-(tert-Butyldimethylsilyl)-5-azacytidine]	–	–	–	Almost no change in the peak of the starting	–	–	–	–
CC[Si](CC)(CC)OC[C@H]1O[C@@H](n2cnc(N)nc2=O)[C@H](O)[C@@H]1O [compound J, 5′-O-Triethylsilyl-5-azacytidine]	0.656 µM	–	–	Almost no change in the peak of the starting	16%	22%	62%	production of 5-azacytidine was confirmed
CC[Si](CC)(CC)OC[C@H]1O[C@@H](n2cnc(N)nc2=O)C[C@@H]1O [compound K, 5′-O-Triethylsilyl-2′-deoxy-5-azacytidine]	0.27 µM	–	Almost no change in the peak of the starting	–	10%	12%	48%	production of corresponding deskill form (2′-deoxy-5-azacytidine) was confirmed
